This passage reports GI50 and TGI results from PubChem BioAssay (NCI).

Among the test systems are ACHN renal; HCC-2998 colon; HT29 colon; IGROV1 ovarian; K-562 leukemia; OVCAR-4 ovarian; SN12C renal; SR leukemia; SW-620 colon.
Assay in all cases: NCI-60 cell line screen, 48 h

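In this assay, cells in 96-well plates receive the compound at five concentrations for 48 hours. Endpoints are linearly interpolated between the surrounding concentrations. The concentration for 50% growth inhibition is given as GI50. TGI: total growth inhibition.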

For the compound `COc1ccc(/C(=N/O)c2cc(F)c(F)c(OC)c2F)cc1O`, the GI50 in the assay on ACHN renal was 0.94 µM; with HCC-2998 colon, 2.01 µM; in the assay on HT29 colon it was 3.6 µM; in the assay with IGROV1 ovarian, 0.815 µM; with K-562 leukemia it was 0.271 µM; in the assay on OVCAR-4 ovarian, 9.1 µM. The GI50 in the assay with SN12C renal is 0.832 µM; in the assay on SR leukemia it was 0.241 µM; in the assay on SW-620 colon it was 0.435 µM. Besides, the TGI in the assay with ACHN renal is above 100 µM; in the assay with HCC-2998 colon it was above 100 µM; in the assay on HT29 colon, 65.4 µM; with IGROV1 ovarian, above 100 µM; with K-562 leukemia, above 100 µM; in the assay with OVCAR-4 ovarian it was above 100 µM. Besides, the TGI with SN12C renal is above 100 µM; with SR leukemia it was 34.1 µM; with SW-620 colon, above 100 µM.
Regarding `O=C1c2ccccc2C(=O)N1CCN(CCN1C(=O)c2ccccc2C1=O)Cc1ccccc1`, the TGI in the assay on ACHN renal, in the assay with K-562 leukemia, in the assay with OVCAR-4 ovarian, in the assay with SN12C renal, with SR leukemia and in the assay on SW-620 colon was above 100 µM in each case.
In the case of `C=CCN=C1NC(=O)C(CC(=O)Nc2ccc([N+](=O)[O-])cc2[N+](=O)[O-])S1` (stereo not drawn), the TGI with ACHN renal, in the assay with HCC-2998 colon, with HT29 colon, in the assay on IGROV1 ovarian, in the assay with OVCAR-4 ovarian and in the assay with SN12C renal was above 100 µM each time. The TGI in the assay on SW-620 colon was above 100 µM.
For `O=[N+]([O-])C(=C1c2ccccc2-c2ccccc21)[N+](=O)[O-]`, the TGI in the assay with ACHN renal, in the assay on HCC-2998 colon, with HT29 colon, with IGROV1 ovarian, in the assay with K-562 leukemia and with OVCAR-4 ovarian was above 100 µM throughout. Further, the TGI in the assay on SN12C renal, with SR leukemia and with SW-620 colon was above 100 µM in each case.
Turning to `O=S(=O)([O-])c1ccc(C=Nc2ccccc2)c([O-])c1.O=S(=O)([O-])c1ccc(C=Nc2ccccc2)c([O-])c1.[Co+2]`, the GI50 in the assay on ACHN renal is 48.1 µM; in the assay with HCC-2998 colon, above 100 µM; in the assay with IGROV1 ovarian, above 100 µM; in the assay on K-562 leukemia, 2.07 µM; with SN12C renal it was 18.8 µM; with SR leukemia it was 24.9 µM. Also, the GI50 in the assay on SW-620 colon is 6.96 µM. The TGI in the assay on ACHN renal, in the assay with HCC-2998 colon, in the assay on IGROV1 ovarian, in the assay with K-562 leukemia, with SN12C renal and with SR leukemia was above 100 µM throughout. This compound also came in with a TGI in the assay with SW-620 colon above 100 µM.
As to `COC(=O)N1C=CC2=C(C)C3Nc4ccccc4C3C(C)=C2C1` (stereo not drawn), the TGI in the assay with ACHN renal was 5.01 µM; in the assay on HCC-2998 colon it was 11.9 µM; with HT29 colon, above 100 µM; in the assay on IGROV1 ovarian, above 100 µM; in the assay on K-562 leukemia, 14.5 µM; in the assay with OVCAR-4 ovarian it was 11.3 µM. In addition, in the assay on SW-620 colon, the TGI was 21.9 µM.
Consider `CCOC(=O)N1C/C(=C\c2ccc(N(C)C)cc2)C(=O)/C(=C/c2ccc(N(C)C)cc2)C1`, for which the TGI in the assay on ACHN renal, in the assay on HCC-2998 colon, in the assay with HT29 colon, in the assay with IGROV1 ovarian, with K-562 leukemia and with OVCAR-4 ovarian was above 100 µM in each case. The TGI in the assay with SN12C renal, in the assay on SR leukemia and in the assay on SW-620 colon was above 100 µM each time.
With `COC(=O)C(C(=O)C(=O)Nc1nc2ccc(OC)cc2s1)c1cnc2ccccc2n1` (stereo not drawn), the TGI in the assay on ACHN renal, in the assay on HCC-2998 colon, in the assay on HT29 colon, in the assay with IGROV1 ovarian, in the assay on K-562 leukemia and with OVCAR-4 ovarian was above 100 µM each time. Besides, the TGI in the assay with SN12C renal and in the assay on SW-620 colon was above 100 µM each time.
In the case of `CN(C)c1ccc(-c2nc(N)nc3c2CCCC3)cc1`, the TGI with ACHN renal was 76.9 µM; in the assay on HCC-2998 colon, above 100 µM; with IGROV1 ovarian, above 100 µM; in the assay on K-562 leukemia it was above 100 µM; in the assay with SN12C renal it was above 100 µM; in the assay on SW-620 colon it was above 100 µM.
Consider `COc1cc(Br)c(C=Nc2cccc3ccc(OS(=O)(=O)c4ccc([N+](=O)[O-])cc4)cc23)cc1OC`, for which the TGI in the assay with ACHN renal, in the assay on HCC-2998 colon, with HT29 colon, in the assay with IGROV1 ovarian, in the assay with OVCAR-4 ovarian and in the assay on SN12C renal was above 100 µM in each case. In addition, the TGI in the assay with SR leukemia and in the assay with SW-620 colon was above 100 µM throughout.
For the compound `Cc1nc2ccccc2c(/C=C/c2ccc(C(F)(F)F)cc2)c1C(=O)/C=C/c1ccccc1`, the GI50 is 1.54 µM in the assay on ACHN renal; 1.57 µM in the assay with HCC-2998 colon; 1.04 µM with HT29 colon; 1.12 µM with IGROV1 ovarian; 1.54 µM in the assay with SN12C renal. The TGI in the assay on ACHN renal was 2.87 µM; with HCC-2998 colon it was 3.29 µM; in the assay with HT29 colon, 6.05 µM; in the assay on IGROV1 ovarian it was 3 µM; in the assay on SN12C renal, 3.01 µM.
`COc1ccc(C2=NC(CO)[C@H](c3ccccc3)O2)cc1OC` (stereo partly drawn): the TGI in the assay on ACHN renal, in the assay on HCC-2998 colon, in the assay with HT29 colon, in the assay with IGROV1 ovarian, in the assay with K-562 leukemia and with OVCAR-4 ovarian was above 100 µM each time. The TGI with SN12C renal and with SW-620 colon was above 100 µM each time.
In the case of `Cc1c(C(=O)Nc2ccc(Oc3ccnc4cc(OCC(C)(C)O)ccc34)c(F)c2)c(=O)n(-c2ccccc2)n1C`, the GI50 with HCC-2998 colon is above 100 µM; with HT29 colon, 2.29 µM; in the assay on K-562 leukemia, 0.393 µM; with SR leukemia, 3.66 µM. Besides, the TGI was above 100 µM in the assay on HCC-2998 colon, above 100 µM with HT29 colon, 15.3 µM in the assay with K-562 leukemia and above 100 µM with SR leukemia.
As for `COc1ccc(C)cc1-c1ccc(-c2cc(C)ccc2OC)o1`, the TGI with ACHN renal, in the assay with HCC-2998 colon, in the assay with HT29 colon, in the assay with IGROV1 ovarian, in the assay on K-562 leukemia and in the assay on OVCAR-4 ovarian was above 100 µM each time. The TGI in the assay on SN12C renal and in the assay on SW-620 colon was above 100 µM in each case.
Regarding `CCOC(=O)C(c1ccsc1)P(=O)(OCC)OCC` (stereo not drawn), the TGI in the assay on ACHN renal was 53 µM; with HCC-2998 colon, 33.8 µM; in the assay on HT29 colon, 39.7 µM; in the assay with OVCAR-4 ovarian, above 100 µM; in the assay on SN12C renal, 30.1 µM; in the assay with SW-620 colon, 30.8 µM.
Regarding `O=C(O)C(Cc1ccc(O)cc1)N=Cc1nc(-c2ccccc2)oc1O` (stereo not drawn), the TGI with ACHN renal, with HCC-2998 colon, in the assay on HT29 colon, with K-562 leukemia, in the assay on OVCAR-4 ovarian and in the assay on SW-620 colon was above 100 µM each time.
